Results on three compounds are retold here after PMC6825211 (Nature Communications, 2019).

The target in series [1] is T1, MST1 (Homo sapiens, UniProt Q13043).
T1 sequence (Q13043 1-487): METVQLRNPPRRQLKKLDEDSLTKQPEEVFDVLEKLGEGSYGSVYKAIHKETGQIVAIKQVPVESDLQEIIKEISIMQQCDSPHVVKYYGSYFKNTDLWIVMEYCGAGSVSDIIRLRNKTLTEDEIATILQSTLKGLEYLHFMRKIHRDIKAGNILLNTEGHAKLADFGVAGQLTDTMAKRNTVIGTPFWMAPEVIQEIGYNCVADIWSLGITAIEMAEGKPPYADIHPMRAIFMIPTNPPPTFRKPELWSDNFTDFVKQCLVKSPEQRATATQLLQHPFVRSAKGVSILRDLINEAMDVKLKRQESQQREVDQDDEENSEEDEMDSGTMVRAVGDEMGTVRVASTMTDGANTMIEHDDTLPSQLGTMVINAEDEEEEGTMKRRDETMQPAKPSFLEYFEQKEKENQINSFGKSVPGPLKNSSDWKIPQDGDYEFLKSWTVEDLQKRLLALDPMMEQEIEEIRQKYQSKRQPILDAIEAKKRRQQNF
The series is described as follows: LanthaScreen Eu kinase binding assay (HTS and dose response). On the set-up: purchased ThermoFisher. The following applies: 1 μM; positive control.
Description: A total of 39 hits were selected for 9-point dose response confirmation in triplicate, starting at 1 μM followed by 1:5 serial dilution.
Compounds in 1000× DMSO stock solution were dispensed by using Echo555 liquid dispensing system (Labcyte, CA) to 1536-well microplate (Corning, NY). Kinase buffer A (ThermoFisher, MA) was prepared and added to each well. […] Each reagent was added to the microplate in equal volume.

Series [2] has as its system mouse model of liver and intestine injury. The arrangement: method as in PMID 27535619. The following applies: cited from earlier work.
Series [3] has as its system MST1–LATS2 signaling. The series is described as follows: Western blot of YAP-S127 phosphorylation (MST1/LATS2 overexpression). As to conditions: 10 μM, last 24 h. For orientation: In western blotting, separated proteins are transferred to a membrane and probed.
Series [4] concerns MST1–LATS2 signaling. Put plainly: LATS-BS in vitro luciferase assay (MST1/LATS2 overexpression).
Excerpt: Therefore a LATS-BS construct has been generated with fusion of YAP fragment and 14-3-3 with N-terminal and C-terminal firefly luciferase fragments (N-luc and C-luc), respectively that assesses LATS kinase activity by measuring the interaction between pS127-YAP and 14-3-3[35] in a MST1–LATS2-phosphorylation-dependent manner (Fig. 4a).
As internal transfection control, pRL-Renilla luciferase control reporter vector (Promega) was co-transfected into each sample. […] Luciferase signal was calculated based on the ratio of luciferase activity of LATS-BS to control reporter vector.
Series [5] relates to INS-1E cells. Put plainly: Western blot of pMST1, caspase-3/PARP cleavage, PDX1, BIM under diabetogenic conditions. The following applies: 10 μM, 24 h. Format: cell-based, rat. As for the experimental part:
. pThr183), caspase-3 and PARP cleavage, PDX1, tubulin, and actin were analyzed by western blotting. Representative Western blots and pooled quantitative densitometry analysis are shown from three independent cell line experiments (n = 3). […]; all by Student’s t tests.
. pThr183), caspase-3 and PARP cleavage, and BIM and actin were analyzed by western blotting. Representative Western blots (b) and pooled quantitative densitometry analysis (c) are shown from 3–6 independent culture dishes (n = 3–6). […]; all by Student’s t tests.
Human islets were isolated from eight pancreases of nondiabetic organ donors at PRODO Labs and at Lille University and cultured on extracellular matrix-coated dishes (Novamed, Jerusalem, Israel)[62] or on Biocoat Collagen I coated dishes (#356400, Corning, ME, USA). […] The clonal rat β-cell line INS-1E was kindly provided by Dr. Claes Wollheim, Geneva & Lund University. Human islets were cultured in complete CMRL-1066 (Invitrogen) medium at 5.5 mM glucose, mouse islets and INS-1E cells at complete RPMI-1640 medium at 11.1 mM glucose. […] . Palmitic acid (Sigma) was dissolved at 10 mmol/l in RPMI-1640 medium containing 11% fatty acid–free bovine serum albumin (BSA) (Sigma) under an N2-atmosphere and added to the culture at 0.5 mM[64]. […] . Isolated human islets or INS-1E cells were infected with adenovirus carrying LacZ as control or MST1 or LATS2 (all Vector Biolabs), at a multiplicity of infection of 100 (human islets) or 20 (INS-1E) for 4 h[11]. Adenovirus was subsequently washed off with PBS and replaced by fresh medium with 10% FBS and the respective analysis performed after 48 h post infection.

In series [6] the target is T2, MST1 (Rattus norvegicus, UniProt A0A8I6A0F8).
T2 construct: endogenous in cells; host or cells: INS-1E (rat beta-cell line)
T2 sequence (A0A8I6A0F8 1-487): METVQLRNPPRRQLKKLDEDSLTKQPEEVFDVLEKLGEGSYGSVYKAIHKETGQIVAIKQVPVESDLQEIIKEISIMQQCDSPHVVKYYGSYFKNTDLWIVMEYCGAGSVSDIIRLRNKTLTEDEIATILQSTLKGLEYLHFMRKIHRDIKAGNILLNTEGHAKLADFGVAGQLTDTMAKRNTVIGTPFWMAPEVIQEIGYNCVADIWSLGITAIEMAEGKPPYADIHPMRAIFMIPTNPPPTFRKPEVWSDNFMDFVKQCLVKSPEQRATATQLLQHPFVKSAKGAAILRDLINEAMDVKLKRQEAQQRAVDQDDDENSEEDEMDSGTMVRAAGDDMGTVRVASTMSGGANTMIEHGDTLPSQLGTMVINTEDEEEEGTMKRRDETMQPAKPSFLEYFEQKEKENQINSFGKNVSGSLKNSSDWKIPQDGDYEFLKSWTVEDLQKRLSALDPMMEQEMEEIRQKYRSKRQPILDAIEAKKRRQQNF
Put plainly: CETSA assay. Format: cell-based. The following applies: 5 μM, 2 h, INS-1E, 55 °C.
Description: Thereafter, cells were pelleted at 200 g for 4 min and resuspended in PBS supplemented with phosphatase and protease inhibitor cocktail at the cell density of 3 Mill./100 µl. Each cell suspension was distributed into five 0.2-ml PCR tubes with 100 µl of cell suspension per tube. PCR tubes were heated at their designated temperature (43–55 °C) on a thermal cycler for 3 min, incubated at room temperature for 3 min, and snap-frozen in liquid nitrogen. Cell lysates were prepared by freezing–thawing the samples in liquid nitrogen twice, and soluble MST1 was detected by western blot analysis.

Series [7] has as its target T1, MST1. The series is described as follows: Biochemical kinase dose response (Suppl. Fig. 5). As to conditions: concentrations up to 10 μM.
The subject of series [8] is MST family members. The arrangement: method as in PMID 22037378. As to conditions: cited from earlier work.
In series [9] the target is MST2 (Homo sapiens, UniProt Q13188). Put plainly: Biochemical kinase dose response (Suppl. Fig. 2, 5). As to conditions: concentrations up to 10 μM.
MST2, sequence (Q13188 whole entry, species assumed): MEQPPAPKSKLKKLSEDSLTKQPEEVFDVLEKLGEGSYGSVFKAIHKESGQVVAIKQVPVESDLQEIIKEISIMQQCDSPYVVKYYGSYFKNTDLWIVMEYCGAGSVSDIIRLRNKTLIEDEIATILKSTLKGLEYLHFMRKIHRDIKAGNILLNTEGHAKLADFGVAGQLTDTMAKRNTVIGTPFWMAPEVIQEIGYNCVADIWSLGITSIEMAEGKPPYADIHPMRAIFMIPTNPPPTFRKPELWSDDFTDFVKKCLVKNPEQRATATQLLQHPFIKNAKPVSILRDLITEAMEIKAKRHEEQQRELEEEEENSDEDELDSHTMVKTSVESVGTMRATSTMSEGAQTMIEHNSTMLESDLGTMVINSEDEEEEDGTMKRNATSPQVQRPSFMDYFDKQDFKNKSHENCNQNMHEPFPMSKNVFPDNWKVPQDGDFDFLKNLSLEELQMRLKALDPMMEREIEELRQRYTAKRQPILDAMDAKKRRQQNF

The inhibition is the share of the control response that was lost under treatment. Read a low inhibition as a response near the control. Consider `CN[C@@H]1C[C@H]2O[C@@](C)([C@@H]1OC)n1c3ccccc3c3c4c(c5c6ccccc6n2c5c31)C(=O)NC4` [staurosporine], for which, in [1], the inhibition at 1 µM amounted to 100%.
`CN1C(=O)c2sccc2N(C)c2nc(Nc3ccc(S(N)(=O)=O)cc3)ncc21` [XMU-MP-1]: the “effect in mouse model of liver and intestine injury” value in series [2] is “promotes tissue repair and regeneration”.
Turning to `C=CC(=O)Nc1cc2c(Nc3ccc(F)c(Cl)c3)ncnc2cc1OCCCN1CCOCC1` [canertinib], in [3], the “MST1/LATS2-induced YAP-S127 phosphorylation” value is on record as “had no inhibitory effect”. Moreover, in series [4] (10 μM, last 24 h), the “MST1/LATS2-induced luciferase activity (LATS-BS)” value was “had no inhibitory effect”. In addition, the “Firefly/Renilla x1000 (MEAN)” value in [4] (L2/Mst1 overexpression + 10 μM compound, mean of six dishes) amounted to 27.5257. Further, the “cleaved caspase-3, cleaved PARP, and BIM under basal conditions” value in [5] was “significant stimulatory effect”. Moreover, in [5] (HG/Pal), the “mitochondrial BIM induction under diabetic conditions” value is “but not the EGFR inhibitor canertinib significantly reduced”; the “stress-induced MST1 activation and caspase-3 and PARP cleavage” value is recorded as “ineffective”. Further, the “thermal stabilization of MST1 in intact cells” value in series [6] is “degradation occurred at the same condition”. In addition, the “inhibition of MST1” value in [7] is “no appreciable inhibition”. Moreover, in [8], the “activity on MST family members” value is reported as “without MST family inhibitory activity”. In addition, the “inhibition of MST2” value in [9] is “no appreciable inhibition”.
